Laboratory results from US10660877B2 (BRISTOL-MYERS SQUIBB COMPANY, priority 2016, dated 2020).
pIC50: −log10 of the molar value. Read-outs that look alike come from different tables or passages of the source.

Columns and labels:
human TLR7 = human TLR7 (Homo sapiens (Human), UniProt Q9NYK1); test: TLR7 inhibition reporter assay (HEK-Blue cells, SEAP reporter, gardiquimod stimulation); assay type: cell-based
human TLR8 = human TLR8 (Homo sapiens (Human), UniProt Q9NR97); test: TLR8 inhibition reporter assay (HEK-Blue cells, SEAP reporter, R848 stimulation);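 further: compounds tested from 0.05 nM to 50 µM, 22 h at 37 °C, SEAP measured with HEK-Blue Detection, inhibition relative to agonist plus DMSO versus a known inhibitor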
human TLR9 = human TLR9 (Homo sapiens (Human), UniProt Q9NR96); test: TLR9 inhibition reporter assay (HEK-Blue cells, SEAP reporter, ODN2006 stimulation);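 further: compounds tested over 0.05 nM to 50 µM, 22 h incubation, inhibition taken as SEAP signal drop from agonist plus DMSO wells toward a known inhibitor control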
[1] = HEK-Blue cells overexpressing human TLR7, gardiquimod 7.5 μM
[2] = read-out: TLR8 IC50, HEK-Blue cells overexpressing human TLR8, R848 15.9 μM
[3] = read-out: TLR9 IC50, HEK-Blue cells overexpressing human TLR9, ODN2006 5 nM
[4] = TLR8 IC50, HEK-Blue cells overexpressing human TLR8, R848 15.9 μM
[5] = TLR9 IC50, HEK-Blue cells overexpressing human TLR9, ODN2006 5 nM
[6] = HEK-Blue cells, gardiquimod 7.5 μM
[7] = read-out: TLR8 IC50, HEK-Blue cells, R848 15.9 μM
[8] = read-out: TLR9 IC50, HEK-Blue cells, ODN2006 5 nM

Chain of human TLR9 (Q9NR96 26-1032): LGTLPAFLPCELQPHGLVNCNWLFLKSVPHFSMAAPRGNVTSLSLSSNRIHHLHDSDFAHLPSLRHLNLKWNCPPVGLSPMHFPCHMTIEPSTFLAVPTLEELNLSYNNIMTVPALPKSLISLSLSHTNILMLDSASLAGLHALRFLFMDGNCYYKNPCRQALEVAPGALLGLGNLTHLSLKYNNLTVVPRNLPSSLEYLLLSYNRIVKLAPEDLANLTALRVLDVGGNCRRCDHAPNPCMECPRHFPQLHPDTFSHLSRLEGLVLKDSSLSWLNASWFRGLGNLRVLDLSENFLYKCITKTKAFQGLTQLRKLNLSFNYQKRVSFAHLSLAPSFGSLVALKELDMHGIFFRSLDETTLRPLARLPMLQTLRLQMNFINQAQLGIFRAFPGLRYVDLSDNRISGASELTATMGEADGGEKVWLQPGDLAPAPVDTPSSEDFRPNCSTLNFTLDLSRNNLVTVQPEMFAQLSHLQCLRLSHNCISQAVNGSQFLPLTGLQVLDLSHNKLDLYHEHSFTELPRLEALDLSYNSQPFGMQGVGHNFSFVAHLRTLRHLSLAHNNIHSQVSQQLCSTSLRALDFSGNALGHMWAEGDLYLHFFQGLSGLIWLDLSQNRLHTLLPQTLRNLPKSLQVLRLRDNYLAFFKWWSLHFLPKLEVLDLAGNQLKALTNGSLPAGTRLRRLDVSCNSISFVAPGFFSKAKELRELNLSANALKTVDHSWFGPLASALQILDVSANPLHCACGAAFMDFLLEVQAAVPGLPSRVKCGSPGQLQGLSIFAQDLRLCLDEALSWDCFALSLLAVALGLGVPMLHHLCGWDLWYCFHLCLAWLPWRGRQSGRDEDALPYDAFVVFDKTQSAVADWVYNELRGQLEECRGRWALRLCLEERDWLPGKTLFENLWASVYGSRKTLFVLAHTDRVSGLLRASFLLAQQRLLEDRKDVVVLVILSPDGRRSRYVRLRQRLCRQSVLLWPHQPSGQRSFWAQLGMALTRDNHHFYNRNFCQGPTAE
Chain of human TLR8 (Q9NR97 27-1041): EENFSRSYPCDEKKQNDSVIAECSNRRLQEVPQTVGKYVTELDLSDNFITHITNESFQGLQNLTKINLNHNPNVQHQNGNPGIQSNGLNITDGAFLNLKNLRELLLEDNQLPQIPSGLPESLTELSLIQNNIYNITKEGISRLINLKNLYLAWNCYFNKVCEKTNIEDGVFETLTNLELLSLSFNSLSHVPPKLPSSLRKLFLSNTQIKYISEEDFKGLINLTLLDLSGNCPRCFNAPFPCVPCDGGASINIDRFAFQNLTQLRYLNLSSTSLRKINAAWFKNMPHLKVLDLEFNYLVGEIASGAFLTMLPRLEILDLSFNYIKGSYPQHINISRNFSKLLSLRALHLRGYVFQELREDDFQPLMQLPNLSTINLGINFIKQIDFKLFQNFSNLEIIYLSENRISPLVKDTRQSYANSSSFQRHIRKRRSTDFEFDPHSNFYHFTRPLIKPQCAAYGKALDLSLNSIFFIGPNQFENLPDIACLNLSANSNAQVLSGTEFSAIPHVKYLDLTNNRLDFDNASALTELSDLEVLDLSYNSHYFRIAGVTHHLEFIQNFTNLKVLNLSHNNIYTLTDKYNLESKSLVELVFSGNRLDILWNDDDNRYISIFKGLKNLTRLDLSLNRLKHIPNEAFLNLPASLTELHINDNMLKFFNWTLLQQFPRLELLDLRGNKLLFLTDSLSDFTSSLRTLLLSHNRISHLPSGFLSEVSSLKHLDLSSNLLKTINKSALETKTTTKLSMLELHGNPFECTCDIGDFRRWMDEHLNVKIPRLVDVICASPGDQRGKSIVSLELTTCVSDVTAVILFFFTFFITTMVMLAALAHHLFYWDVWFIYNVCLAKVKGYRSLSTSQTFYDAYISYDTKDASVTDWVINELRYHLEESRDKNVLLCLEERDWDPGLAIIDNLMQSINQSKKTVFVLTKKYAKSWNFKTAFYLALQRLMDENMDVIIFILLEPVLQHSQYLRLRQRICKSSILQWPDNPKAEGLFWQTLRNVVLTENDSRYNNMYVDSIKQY
Chain of human TLR7 (Q9NYK1 27-1049): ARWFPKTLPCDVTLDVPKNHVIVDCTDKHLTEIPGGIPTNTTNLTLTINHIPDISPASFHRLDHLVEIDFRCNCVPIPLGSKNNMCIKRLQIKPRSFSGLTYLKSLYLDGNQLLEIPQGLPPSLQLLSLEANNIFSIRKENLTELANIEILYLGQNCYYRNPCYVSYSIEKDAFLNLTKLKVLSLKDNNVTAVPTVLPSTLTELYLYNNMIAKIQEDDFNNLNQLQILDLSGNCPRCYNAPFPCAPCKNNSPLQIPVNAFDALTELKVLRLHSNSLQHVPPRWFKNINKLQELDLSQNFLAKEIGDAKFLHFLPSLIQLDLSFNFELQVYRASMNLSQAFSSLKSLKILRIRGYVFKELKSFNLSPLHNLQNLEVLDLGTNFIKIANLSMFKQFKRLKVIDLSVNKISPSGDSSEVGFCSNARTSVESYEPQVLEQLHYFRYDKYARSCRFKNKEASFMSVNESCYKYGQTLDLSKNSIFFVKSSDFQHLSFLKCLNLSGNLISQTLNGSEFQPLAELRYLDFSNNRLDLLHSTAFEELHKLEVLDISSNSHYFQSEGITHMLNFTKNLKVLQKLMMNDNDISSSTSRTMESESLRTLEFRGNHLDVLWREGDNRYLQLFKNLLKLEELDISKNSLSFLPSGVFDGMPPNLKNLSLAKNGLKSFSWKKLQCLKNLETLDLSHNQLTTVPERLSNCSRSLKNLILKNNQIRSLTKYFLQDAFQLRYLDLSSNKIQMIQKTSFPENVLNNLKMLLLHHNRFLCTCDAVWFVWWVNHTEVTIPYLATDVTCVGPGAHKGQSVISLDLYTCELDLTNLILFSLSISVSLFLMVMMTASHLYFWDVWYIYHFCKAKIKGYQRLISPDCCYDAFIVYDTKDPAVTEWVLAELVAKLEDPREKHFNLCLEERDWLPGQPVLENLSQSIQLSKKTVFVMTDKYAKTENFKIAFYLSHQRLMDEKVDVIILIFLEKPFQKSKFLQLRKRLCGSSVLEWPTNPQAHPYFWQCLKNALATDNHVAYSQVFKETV

Compound: Cc1cc(-c2[nH]c3ccc(C4CCN(C(=O)C5CC(=O)N(C)C5)CC4)cc3c2C(C)C)c(F)cn1 (stereo not drawn) [Example 583, 4-(4-(2-(5-fluoro-2-methylpyridin-4-yl)-3-isopropyl-1H-indol-5-yl)piperidine-1-carbonyl)-1-methylpyrrolidin-2-one]
- pIC50 (human TLR7; [1]): 7.81
- pIC50 (human TLR8; [2]): 7.43
- pIC50 (human TLR9; [3]): < 4.30

Compound: Cc1cc(-c2[nH]c3ccc(C4CCN(C(=O)CNCCC(C)C)CC4)cc3c2C(C)C)cc(C)n1 [Example 393, 1-(4-(2-(2,6-dimethylpyridin-4-yl)-3-isopropyl-1H-indol-5-yl)piperidin-1-yl)-2-(isopentylamino)ethan-1-one]
- pIC50 (human TLR7; [1]): 8.10
- pIC50 (human TLR8; [4]): 7.42
- pIC50 (human TLR9; [5]): 6.10

Compound: Cc1cc(-c2[nH]c3ccc(C4CCN(CC(=O)N(CCO)Cc5ccc(F)cc5)CC4)cc3c2C(C)C)cc(C)n1 [Example 300, 2-(4-(2-(2,6-dimethylpyridin-4-yl)-3-isopropyl-1H-indol-5-yl)piperidin-1-yl)-N-(4-fluorobenzyl)-N-(2-hydroxyethyl)acetamide]
- pIC50 (human TLR7; [1]): 7.54
- pIC50 (human TLR8; [2]): 7.15
- pIC50 (human TLR9; [3]): 5.78

Compound: CCc1c(-c2ccnc(C)c2)[nH]c2ccc(C3CCN(C)CC3)cc12 [Example 670, 3-ethyl-5-(1-methylpiperidin-4-yl)-2-(2-methylpyridin-4-yl)-1H-indole]
- pIC50 (human TLR7; [1]): 7.17
- pIC50 (human TLR8; [2]): 7.19
- pIC50 (human TLR9; [3]): 6.18

Compound: COc1cc(-c2[nH]c3ccc(C4CCN(C5CCN(C(C)C)CC5)CC4)cc3c2C(C)C)ccn1 [Example 797, 3-isopropyl-5-(1′-isopropyl-[1,4′-bipiperidin]-4-yl)-2-(2-methoxypyridin-4-yl)-1H-indole]
- pIC50 (human TLR7; [1]): 6.85
- pIC50 (human TLR8; [2]): 7.64
- pIC50 (human TLR9; [3]): 6.22

Compound: CCS(=O)(=O)N1CCC(c2ccc3[nH]c(-c4ccnc(C)c4)c(C(C)C)c3c2)CC1 [Example 549, 5-(1-(ethylsulfonyl)piperidin-4-yl)-3-isopropyl-2-(2-methylpyridin-4-yl)-1H-indole]
- pIC50 (human TLR7; [1]): 7.25
- pIC50 (human TLR8; [2]): 6.79
- pIC50 (human TLR9; [3]): < 4.30

Compound: COC(=O)C1CC(N2CCC(c3ccc4[nH]c(-c5ccnc(C)c5)c(C(C)C)c4c3)CC2)CCN1 (stereo not drawn) [Example 704, methyl 4-(3-isopropyl-2-(2-methylpyridin-4-yl)-1H-indol-5-yl)-[1,4′-bipiperidine]-2′-carboxylate]
- pIC50 (human TLR7; [1]): 7.68
- pIC50 (human TLR8; [2]): 8.39
- pIC50 (human TLR9; [3]): 6.26

Compound: Cc1cc(-c2[nH]c3ccc(C4CCN(CC(=O)N(C(C)C)C(C)C)CC4)cc3c2C(C)C)cc(C)n1 [Example 253, 2-(4-(2-(2,6-dimethylpyridin-4-yl)-3-isopropyl-1H-indol-5-yl)piperidin-1-yl)-N,N-diisopropylacetamide]
- pIC50 (human TLR7; [1]): 7.71
- pIC50 (human TLR8; [2]): 7.43
- pIC50 (human TLR9; [3]): 5.87

Compound: Cc1cc(-c2[nH]c3ccc(C4CCN(Cc5cccnc5)CC4)cc3c2C(C)C)cc(C)n1 [Example 433, 2-(2,6-dimethylpyridin-4-yl)-3-isopropyl-5-(1-(pyridin-3-ylmethyl)piperidin-4-yl)-1H-indole]
- pIC50 (human TLR7; [1]): 8.34
- pIC50 (human TLR8; [4]): 8.62
- pIC50 (human TLR9; [5]): 6.63

Compound: Cc1cc(-c2[nH]c3ccc(C4CCN(CC(=O)NCC5(C)CC5)CC4)cc3c2C(C)C)cc(C)n1 [Example 255, 2-(4-(2-(2,6-dimethylpyridin-4-yl)-3-isopropyl-1H-indol-5-yl)piperidin-1-yl)-N-((1-methylcyclopropyl)methyl)acetamide]
- pIC50 (human TLR7; [1]): 8.16
- pIC50 (human TLR8; [2]): 7.69
- pIC50 (human TLR9; [3]): 6.18

Compound: Cc1cc(-c2[nH]c3ccc(C4CCN(CC(=O)N(C)CC(C)(C)O)CC4)cc3c2C(C)C)cc(C)n1 [Example 305, 2-(4-(2-(2,6-dimethylpyridin-4-yl)-3-isopropyl-1H-indol-5-yl)piperidin-1-yl)-N-(2-hydroxy-2-methylpropyl)-N-methylacetamide]
- pIC50 (human TLR7; [1]): 8.31
- pIC50 (human TLR8; [2]): 7.95
- pIC50 (human TLR9; [3]): 6.57

Compound: Cc1cc(-c2[nH]c3ccc(C4CCN(C(=O)C(=O)N5CCNCC5)CC4)cc3c2C(C)C)cc(C)n1 [Example 857, 1-(4-(2-(2,6-dimethylpyridin-4-yl)-3-isopropyl-1H-indol-5-yl)piperidin-1-yl)-2-(piperazin-1-yl)ethane-1,2-dione]
- pIC50 (human TLR7; [6]): 8.89
- pIC50 (human TLR8; [7]): 7.87
- pIC50 (human TLR9; [8]): 6.36

Compound: Cc1cc(-c2[nH]c3ccc(C4CCN(Cc5c[nH]nc5C)CC4)cc3c2C(C)C)cc(C)n1 [Example 439, 2-(2,6-dimethylpyridin-4-yl)-3-isopropyl-5-(1-((3-methyl-1H-pyrazol-4-yl)methyl)piperidin-4-yl)-1H-indole]
- pIC50 (human TLR7; [1]): 8.11
- pIC50 (human TLR8; [2]): 8.20
- pIC50 (human TLR9; [3]): 6.69

Compound: Cc1cc(-c2[nH]c3ccc(C4CCN(C(=O)C5(C(N)=O)CC5)CC4)cc3c2C(C)C)cc(C)n1 [Example 133, 1-(4-(2-(2,6-dimethylpyridin-4-yl)-3-isopropyl-1H-indol-5-yl)piperidine-1-carbonyl)cyclopropane-1-carboxamide]
- pIC50 (human TLR7; [1]): 7.91
- pIC50 (human TLR8; [2]): 7.21
- pIC50 (human TLR9; [3]): < 4.30

Compound: Cc1cc(-c2[nH]c3ccc(C4CCN(CC(=O)N5CCC(C)CC5)CC4)cc3c2C(C)C)cc(C)n1 [Example 269, 2-(4-(2-(2,6-dimethylpyridin-4-yl)-3-isopropyl-1H-indol-5-yl)piperidin-1-yl)-1-(4-methylpiperidin-1-yl)ethan-1-one]
- pIC50 (human TLR7; [1]): 8.43
- pIC50 (human TLR8; [2]): 7.70
- pIC50 (human TLR9; [3]): 6.64

Compound: CCc1c(-c2ccnc(NC(C)=O)c2)[nH]c2ccc(C3CCN(C4CCN(CC(C)C)CC4)CC3)cc12 [Example 766, N-(4-(3-ethyl-5-(1′-isobutyl-[1,4′-bipiperidin]-4-yl)-1H-indol-2-yl)pyridin-2-yl)acetamide]
- pIC50 (human TLR7; [1]): 5.40
- pIC50 (human TLR8; [2]): 6.61
- pIC50 (human TLR9; [3]): 7.08

Compound: Cc1cc(-c2[nH]c3ccc(C4CCN(CC(=O)N5CCCC(O)C5)CC4)cc3c2C(C)C)cc(C)n1 (stereo not drawn) [Example 277, 2-(4-(2-(2,6-dimethylpyridin-4-yl)-3-isopropyl-1H-indol-5-yl)piperidin-1-yl)-1-(3-hydroxypiperidin-1-yl)ethan-1-one]
- pIC50 (human TLR7; [1]): 8.70
- pIC50 (human TLR8; [2]): 8.18
- pIC50 (human TLR9; [3]): 6.70

Compound: Cc1cc(-c2[nH]c3ccc(C4CCN(CC(=O)N5CCC6(CC5)COC6)CC4)cc3c2C(C)C)cc(C)n1 [Example 286, 2-(4-(2-(2,6-dimethylpyridin-4-yl)-3-isopropyl-1H-indol-5-yl)piperidin-1-yl)-1-(2-oxa-7-azaspiro[3.5]nonan-7-yl)ethan-1-one]
- pIC50 (human TLR7; [1]): 8.21
- pIC50 (human TLR8; [2]): 7.85
- pIC50 (human TLR9; [3]): 6.58

Compound: Cc1cc(-c2[nH]c3ccc(C4CCN(C(=O)CN5CCC(F)(F)CC5)CC4)cc3c2C(C)C)cc(C)n1 [Example 362, 2-(4,4-difluoropiperidin-1-yl)-1-(4-(2-(2,6-dimethylpyridin-4-yl)-3-isopropyl-1H-indol-5-yl)piperidin-1-yl)ethan-1-one]
- pIC50 (human TLR7; [1]): 7.47
- pIC50 (human TLR8; [2]): 7.26
- pIC50 (human TLR9; [3]): 4.79

Compound: Cc1cc(-c2[nH]c3ccc(C4CCN(C5CC(C)OC(C)C5)CC4)cc3c2C(C)C)ccn1 (stereo not drawn) [Example 713, 5-(1-(2,6-dimethyltetrahydro-2H-pyran-4-yl)piperidin-4-yl)-3-isopropyl-2-(2-methylpyridin-4-yl)-1H-indole]
- pIC50 (human TLR7; [1]): 8.46
- pIC50 (human TLR8; [2]): 7.83
- pIC50 (human TLR9; [3]): 6.26

Compound: Cc1cc(-c2[nH]c3ccc(C4CCN(Cc5cncnc5)CC4)cc3c2C(C)C)cc(C)n1 [Example 434, 2-(2,6-dimethylpyridin-4-yl)-3-isopropyl-5-(1-(pyrimidin-5-ylmethyl)piperidin-4-yl)-1H-indole]
- pIC50 (human TLR7; [1]): 7.45
- pIC50 (human TLR8; [4]): 7.98
- pIC50 (human TLR9; [5]): 6.12

Compound: CCc1c(-c2ccnc(OC(C)C)c2)[nH]c2ccc(C3CCN(C4CCN(CC(C)C)CC4)CC3)cc12 [Example 769, 3-ethyl-5-(1′-isobutyl-[1,4′-bipiperidin]-4-yl)-2-(2-isopropoxypyridin-4-yl)-1H-indole]
- pIC50 (human TLR7; [1]): 5.27
- pIC50 (human TLR8; [2]): 5.98
- pIC50 (human TLR9; [3]): 5.82

Compound: Cc1cc(-c2[nH]c3ccc(C4CCN(C(=O)[C@@H]5CCC[C@H](N)C5)CC4)cc3c2C(C)C)ccn1 [Example 576, ((1R,3S)-3-aminocyclohexyl)(4-(3-isopropyl-2-(2-methylpyridin-4-yl)-1H-indol-5-yl)piperidin-1-yl)methanone]
- pIC50 (human TLR7; [1]): 7.82
- pIC50 (human TLR8; [2]): 7.62
- pIC50 (human TLR9; [3]): 6.14

Compound: CNC(=O)C(=O)N1CCC(c2ccc3[nH]c(-c4ccnc(C)c4)c(C(C)C)c3c2)CC1 [Example 879, 2-(4-(3-isopropyl-2-(2-methylpyridin-4-yl)-1H-indol-5-yl)piperidin-1-yl)-N-methyl-2-oxoacetamide]
- pIC50 (human TLR7; [6]): 7.43
- pIC50 (human TLR8; [7]): 6.77
- pIC50 (human TLR9; [8]): < 4.30

Compound: Cc1cc(-c2[nH]c3ccc(C4CCN(C(=O)C5CC(=O)N(C)C5)CC4)cc3c2C(C)C)ccn1 (stereo not drawn) [Example 619, 4-(4-(3-isopropyl-2-(2-methylpyridin-4-yl)-1H-indol-5-yl)piperidine-1-carbonyl)-1-methylpyrrolidin-2-one]
- pIC50 (human TLR7; [1]): 7.29
- pIC50 (human TLR8; [2]): 7.17
- pIC50 (human TLR9; [3]): < 4.30

Compound: Cc1cc(-c2[nH]c3ccc(C4CCN(C(=O)CN(C)C)CC4)cc3c2C(C)C)c(C)cn1 [Example 585, 2-(dimethylamino)-1-(4-(2-(2,5-dimethylpyridin-4-yl)-3-isopropyl-1H-indol-5-yl)piperidin-1-yl)ethan-1-one]
- pIC50 (human TLR7; [1]): 7.97
- pIC50 (human TLR8; [2]): 8.28
- pIC50 (human TLR9; [3]): 5.78

Compound: Cc1cc(-c2[nH]c3ccc(C4CCN(C(=O)CNC5CCOCC5)CC4)cc3c2C(C)C)cc(C)n1 [Example 386, 1-(4-(2-(2,6-dimethylpyridin-4-yl)-3-isopropyl-1H-indol-5-yl)piperidin-1-yl)-2-((tetrahydro-2H-pyran-4-yl)amino)ethan-1-one]
- pIC50 (human TLR7; [1]): 8.44
- pIC50 (human TLR8; [2]): 7.75
- pIC50 (human TLR9; [3]): 6.55
